Consider one compound from ChEMBL document CHEMBL6074671, “Discovery of Pyridine-2-Carboxamides Derivatives as Potent and Selective HPK1 Inhibitors for the Treatment of Cancer” (J Med Chem, 2024).

A value given as a limit tells only on which side of the number the result lay.

The target of one data set is Cytochrome P450 2C9 (Homo sapiens, UniProt P11712). Put plainly: Inhibition of CYP2C9 in human liver microsomes using diclofenac 4-hydroxylation as substrate incubated for 10 mins in presence of NADPH by LC-MS/MS analysis. The class given is ADME, Microsome.
Chain of Cytochrome P450 2C9 (P11712 whole entry): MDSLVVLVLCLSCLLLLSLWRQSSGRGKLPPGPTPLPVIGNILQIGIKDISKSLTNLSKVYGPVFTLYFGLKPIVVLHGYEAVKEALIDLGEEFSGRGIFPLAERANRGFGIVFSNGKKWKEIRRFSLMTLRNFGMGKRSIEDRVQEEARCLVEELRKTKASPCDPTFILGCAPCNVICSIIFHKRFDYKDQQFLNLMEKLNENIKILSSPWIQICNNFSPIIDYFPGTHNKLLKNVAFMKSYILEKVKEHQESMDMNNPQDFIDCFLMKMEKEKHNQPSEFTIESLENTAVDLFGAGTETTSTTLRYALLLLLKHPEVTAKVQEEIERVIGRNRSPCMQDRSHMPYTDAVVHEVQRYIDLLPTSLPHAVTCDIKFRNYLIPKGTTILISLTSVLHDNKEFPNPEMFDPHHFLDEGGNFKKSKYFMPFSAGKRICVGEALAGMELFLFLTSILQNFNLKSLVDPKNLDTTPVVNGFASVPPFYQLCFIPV
The subject of data set [1] is MC-38. Put plainly: Synergistic antitumor activity against mouse MC38 cells implanted in C57BL/6 mouse model assessed as CDI value at high dose, po BID measured after 12 days in presence of anti-PD-1. The class given is functional. The note with it: time 12 day.
Data set [2] can be described thus: Genotoxicity in Salmonella typhimurium TA100 incubated for 48 to 72 hrs in presence of S9 fraction by AMES test. The data set is classed as toxicity, subcellular. The following applies: salmonella enterica subsp. enterica serovar typhimurium, time 48-72 hrs.
For data set [3], the target named is Tyrosine-protein kinase JAK1 (Homo sapiens, UniProt P23458). Put plainly: Inhibition of JAK1 (unknown origin).
Chain of Tyrosine-protein kinase JAK1 (P23458 whole entry): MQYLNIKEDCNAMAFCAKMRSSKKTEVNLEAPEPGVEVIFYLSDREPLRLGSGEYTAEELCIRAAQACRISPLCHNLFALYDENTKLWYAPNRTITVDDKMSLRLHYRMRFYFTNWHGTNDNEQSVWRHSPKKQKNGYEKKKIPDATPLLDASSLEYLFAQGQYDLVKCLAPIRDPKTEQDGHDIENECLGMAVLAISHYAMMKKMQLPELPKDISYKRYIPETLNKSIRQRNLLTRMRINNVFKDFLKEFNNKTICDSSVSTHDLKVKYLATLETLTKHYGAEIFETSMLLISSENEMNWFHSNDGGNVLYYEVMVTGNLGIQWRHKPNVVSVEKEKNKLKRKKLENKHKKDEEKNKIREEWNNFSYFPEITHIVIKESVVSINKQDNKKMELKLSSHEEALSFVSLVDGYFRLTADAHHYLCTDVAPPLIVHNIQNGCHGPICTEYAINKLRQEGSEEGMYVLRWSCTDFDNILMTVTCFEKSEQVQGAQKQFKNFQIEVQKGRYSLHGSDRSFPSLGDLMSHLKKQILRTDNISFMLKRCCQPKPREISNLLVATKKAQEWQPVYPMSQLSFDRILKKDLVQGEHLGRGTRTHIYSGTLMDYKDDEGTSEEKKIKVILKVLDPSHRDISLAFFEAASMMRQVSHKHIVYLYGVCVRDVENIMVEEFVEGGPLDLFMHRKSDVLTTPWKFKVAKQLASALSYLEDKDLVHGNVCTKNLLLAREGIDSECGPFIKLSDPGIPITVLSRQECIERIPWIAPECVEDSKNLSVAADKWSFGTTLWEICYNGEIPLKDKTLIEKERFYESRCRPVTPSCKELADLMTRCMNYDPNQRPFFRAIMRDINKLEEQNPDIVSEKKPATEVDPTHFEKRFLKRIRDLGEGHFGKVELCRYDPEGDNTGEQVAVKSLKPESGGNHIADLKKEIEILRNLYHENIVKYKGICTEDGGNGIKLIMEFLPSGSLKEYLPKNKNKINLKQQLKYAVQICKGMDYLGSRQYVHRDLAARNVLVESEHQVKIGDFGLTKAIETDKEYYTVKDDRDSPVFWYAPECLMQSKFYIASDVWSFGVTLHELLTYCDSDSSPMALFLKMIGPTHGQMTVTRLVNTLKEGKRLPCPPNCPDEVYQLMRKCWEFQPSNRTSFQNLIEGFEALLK
A short description of data set [4]: Toxicity in C57BL/6 mouse implanted with mouse MC38 cells assessed as effect on body weight loss at low dose, po BID measured after 12 days. The class given is organism-based. The following applies: in vivo, 288 h, time 12 day.
Data set [5] is described as follows: in vivo. The following applies: cynomolgus monkey, po, 2 mg/kg.
Description: Half life in Cynomolgus monkey at 2 mg/kg, po
Data set [6] is described as follows: Toxicity in C57BL/6 mouse implanted with mouse MC38 cells assessed as increase in survival at high dose, po BID measured after 12 days in presence of anti-PD-1. The class given is organism-based. The note with it: in vivo, 288 h, time 12 day.
Data set [7] deals with Receptor-type tyrosine-protein kinase FLT3 (Homo sapiens, UniProt P36888). Kind of data set: Inhibition of FLT3 (unknown origin).
Chain of Receptor-type tyrosine-protein kinase FLT3 (P36888 whole entry): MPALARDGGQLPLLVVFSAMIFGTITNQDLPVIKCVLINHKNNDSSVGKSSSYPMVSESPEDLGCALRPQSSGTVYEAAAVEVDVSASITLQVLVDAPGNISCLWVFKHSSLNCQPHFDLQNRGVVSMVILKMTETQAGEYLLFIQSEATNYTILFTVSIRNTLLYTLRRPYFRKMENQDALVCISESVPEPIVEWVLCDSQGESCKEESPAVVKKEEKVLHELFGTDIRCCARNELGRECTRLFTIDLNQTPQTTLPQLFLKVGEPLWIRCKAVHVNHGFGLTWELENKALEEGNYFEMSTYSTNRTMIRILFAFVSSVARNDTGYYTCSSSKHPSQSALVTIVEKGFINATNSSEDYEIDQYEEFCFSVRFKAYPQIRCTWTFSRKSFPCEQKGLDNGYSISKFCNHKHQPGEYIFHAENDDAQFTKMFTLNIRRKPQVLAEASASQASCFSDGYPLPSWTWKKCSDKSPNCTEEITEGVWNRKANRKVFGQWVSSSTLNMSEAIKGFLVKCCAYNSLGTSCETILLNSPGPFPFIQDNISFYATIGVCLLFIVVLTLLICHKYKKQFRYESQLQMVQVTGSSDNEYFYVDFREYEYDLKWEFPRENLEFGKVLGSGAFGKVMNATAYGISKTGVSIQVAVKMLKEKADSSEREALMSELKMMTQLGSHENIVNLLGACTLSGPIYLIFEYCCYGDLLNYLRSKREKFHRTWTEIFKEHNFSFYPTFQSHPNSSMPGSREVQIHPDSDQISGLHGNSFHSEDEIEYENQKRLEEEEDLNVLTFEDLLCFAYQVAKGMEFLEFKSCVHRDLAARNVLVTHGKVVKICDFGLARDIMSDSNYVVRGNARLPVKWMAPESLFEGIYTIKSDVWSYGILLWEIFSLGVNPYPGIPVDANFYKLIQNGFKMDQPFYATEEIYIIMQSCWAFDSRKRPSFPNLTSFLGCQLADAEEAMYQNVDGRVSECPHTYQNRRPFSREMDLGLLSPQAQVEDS
Data set [8] deals with MC-38. Put plainly: Synergistic antitumor activity against mouse MC38 cells implanted in C57BL/6 mouse model assessed as tumor growth inhibition at high dose, po BID measured after 12 days in presence of anti-PD-1 relative to control. The following applies: time 12 day. The class given is functional.
In data set [9] the test system is MC-38. Kind of data set: Synergistic antitumor activity against mouse MC38 cells implanted in C57BL/6 mouse model assessed as CDI value at low dose, po BID measured after 12 days in presence of anti-PD-1. The following applies: time 12 day. The data set is classed as functional.
A short description of data set [10]: in vivo. The note with it: cynomolgus monkey, po, 2 mg/kg. The source holds these as a separate data set.
Data set [11] can be described thus: Toxicity in Balb/c mouse assessed as effect on body weight loss at 1.5 to 12 mg/kg, po BID measured after 15 days. The class given is organism-based. The note with it: in vivo, 360 h, dose 1.5-12 mg/kg, time 15 day.
Data set [12] in a line: in vivo. The following applies: Balb/c, mouse, iv, 1 mg/kg.
Description: Volume of distribution in Balb/c mouse at 1 mg/kg, iv
Data set [13] in a line: Oral bioavailability n Sprague-Dawley rat at 10 mg/kg. The class given is ADME, organism-based. The following applies: in vivo.
Data set [14] can be described thus: Plasma protein binding in rat assessed as unbound fraction at 2 uM incubated for 4 hrs by LC-MS/MS analysis. The class given is ADME, cell-free.
The target in the next data set is Cytochrome P450 1A2 (Homo sapiens, UniProt P05177). Kind of data set: Inhibition of CYP1A2 in human liver microsomes using phenacetin O-demethylation as substrate incubated for 10 mins in presence of NADPH by LC-MS/MS analysis. The data set is classed as ADME, Microsome.
Chain of Cytochrome P450 1A2 (P05177 whole entry): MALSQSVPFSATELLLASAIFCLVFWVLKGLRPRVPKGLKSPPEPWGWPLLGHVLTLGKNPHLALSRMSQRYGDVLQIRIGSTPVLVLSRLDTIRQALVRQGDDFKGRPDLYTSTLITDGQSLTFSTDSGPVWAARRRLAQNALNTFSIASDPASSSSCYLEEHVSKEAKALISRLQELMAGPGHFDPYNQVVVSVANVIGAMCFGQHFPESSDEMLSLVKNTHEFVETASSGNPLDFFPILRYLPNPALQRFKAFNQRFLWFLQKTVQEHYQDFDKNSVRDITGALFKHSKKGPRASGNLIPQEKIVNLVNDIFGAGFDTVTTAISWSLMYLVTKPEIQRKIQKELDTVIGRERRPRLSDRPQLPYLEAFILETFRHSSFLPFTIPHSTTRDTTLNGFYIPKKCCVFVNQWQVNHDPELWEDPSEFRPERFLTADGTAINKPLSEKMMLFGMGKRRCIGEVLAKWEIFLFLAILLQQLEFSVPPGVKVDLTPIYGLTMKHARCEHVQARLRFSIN
The target of data set [15] is T1, Mitogen-activated protein kinase kinase kinase kinase 3 (Homo sapiens, UniProt Q8IVH8).
T1 sequence (Q8IVH8 whole entry): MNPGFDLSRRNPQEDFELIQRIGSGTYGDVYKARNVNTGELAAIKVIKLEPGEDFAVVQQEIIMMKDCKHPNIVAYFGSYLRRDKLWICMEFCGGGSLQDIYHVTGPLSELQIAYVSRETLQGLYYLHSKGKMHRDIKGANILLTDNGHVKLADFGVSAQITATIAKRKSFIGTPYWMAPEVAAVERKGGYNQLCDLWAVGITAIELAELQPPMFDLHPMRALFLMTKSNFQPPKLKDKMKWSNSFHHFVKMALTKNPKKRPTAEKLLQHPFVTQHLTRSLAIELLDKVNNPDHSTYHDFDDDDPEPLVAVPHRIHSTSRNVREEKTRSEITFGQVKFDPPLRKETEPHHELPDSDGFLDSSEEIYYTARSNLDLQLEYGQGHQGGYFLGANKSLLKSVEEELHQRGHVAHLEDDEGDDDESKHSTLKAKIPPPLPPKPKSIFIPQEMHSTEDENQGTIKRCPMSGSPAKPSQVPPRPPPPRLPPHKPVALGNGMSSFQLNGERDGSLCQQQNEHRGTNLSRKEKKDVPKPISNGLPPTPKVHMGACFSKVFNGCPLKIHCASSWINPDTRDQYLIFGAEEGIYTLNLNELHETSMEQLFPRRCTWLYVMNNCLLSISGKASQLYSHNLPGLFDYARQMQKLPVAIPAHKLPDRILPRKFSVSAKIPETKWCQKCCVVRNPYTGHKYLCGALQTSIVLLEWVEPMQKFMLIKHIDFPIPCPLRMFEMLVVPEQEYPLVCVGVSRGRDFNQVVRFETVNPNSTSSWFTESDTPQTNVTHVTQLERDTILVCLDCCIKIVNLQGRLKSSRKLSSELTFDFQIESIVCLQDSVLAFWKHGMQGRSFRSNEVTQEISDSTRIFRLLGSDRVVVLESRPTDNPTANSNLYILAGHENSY
Kind of data set: Inhibition of GLK (unknown origin).

The target in the next data set is Misshapen-like kinase 1 (Homo sapiens, UniProt Q8N4C8). Kind of data set: Inhibition of catalytic domain human GST-tagged N-terminal MAP4K6 (1 to 314 residues) expressed in insect Sf21 cells.
Chain of Misshapen-like kinase 1 (Q8N4C8 whole entry, the tested form may be a part): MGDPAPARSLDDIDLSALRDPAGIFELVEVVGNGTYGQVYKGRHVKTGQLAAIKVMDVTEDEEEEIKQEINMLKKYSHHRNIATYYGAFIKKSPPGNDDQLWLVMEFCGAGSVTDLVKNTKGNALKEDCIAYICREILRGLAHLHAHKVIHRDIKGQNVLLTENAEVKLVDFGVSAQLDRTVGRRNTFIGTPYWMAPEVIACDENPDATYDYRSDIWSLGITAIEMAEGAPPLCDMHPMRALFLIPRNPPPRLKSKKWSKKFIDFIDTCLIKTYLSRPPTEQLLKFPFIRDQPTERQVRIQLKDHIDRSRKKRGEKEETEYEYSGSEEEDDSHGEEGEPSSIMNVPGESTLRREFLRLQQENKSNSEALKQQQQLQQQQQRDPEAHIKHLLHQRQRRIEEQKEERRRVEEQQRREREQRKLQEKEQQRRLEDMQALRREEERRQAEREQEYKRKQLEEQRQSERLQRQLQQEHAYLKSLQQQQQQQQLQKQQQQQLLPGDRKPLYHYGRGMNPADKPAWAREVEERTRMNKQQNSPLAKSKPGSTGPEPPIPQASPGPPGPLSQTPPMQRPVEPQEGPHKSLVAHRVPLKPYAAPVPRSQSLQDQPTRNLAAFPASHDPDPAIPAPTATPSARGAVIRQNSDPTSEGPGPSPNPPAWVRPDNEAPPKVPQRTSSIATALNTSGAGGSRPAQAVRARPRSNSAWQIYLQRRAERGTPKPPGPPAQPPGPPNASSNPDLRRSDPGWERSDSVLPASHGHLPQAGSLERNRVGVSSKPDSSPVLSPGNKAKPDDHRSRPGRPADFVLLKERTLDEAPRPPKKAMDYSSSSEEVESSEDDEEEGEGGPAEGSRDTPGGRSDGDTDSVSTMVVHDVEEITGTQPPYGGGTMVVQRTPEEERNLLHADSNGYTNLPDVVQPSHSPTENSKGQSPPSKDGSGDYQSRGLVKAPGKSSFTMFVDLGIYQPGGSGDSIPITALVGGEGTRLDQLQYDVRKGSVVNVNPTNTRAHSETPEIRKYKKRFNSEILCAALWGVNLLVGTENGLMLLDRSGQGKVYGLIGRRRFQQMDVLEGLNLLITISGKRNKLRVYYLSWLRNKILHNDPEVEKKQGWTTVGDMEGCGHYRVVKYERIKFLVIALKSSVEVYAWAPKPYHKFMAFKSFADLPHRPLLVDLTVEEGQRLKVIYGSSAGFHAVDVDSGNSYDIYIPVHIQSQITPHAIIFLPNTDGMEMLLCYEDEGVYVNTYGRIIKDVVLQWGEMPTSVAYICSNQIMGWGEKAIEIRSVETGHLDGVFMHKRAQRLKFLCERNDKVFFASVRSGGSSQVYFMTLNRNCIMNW

Take `COc1cc(Nc2ccc3c(n2)CN(C)C32CCN(C3COC3)CC2)c(C(N)=O)nc1-c1cccc2c1ncn2C`: the IC50 at Cytochrome P450 2C9 was more than 50000 nM; in [3] it was more than 10000 nM; in [7] it was 317 nM; on Cytochrome P450 1A2, more than 50000 nM; in [15], 325 nM; at Misshapen-like kinase 1, 116 nM. For the same compound, the Activity is 0.57 with MC-38 [1]; “Non-toxic” in data set [2]; “Non-toxic” in data set [4]; “Non-toxic” in [6]; 0.78 with MC-38 [9]; “Non-toxic” in data set [11]. Besides, the half-life in the data set “in vivo [5]” was 8.73 h. For the same compound, the TGI in the data set on MC-38 [8] amounted to 83.3%. In addition, the bioavailability in “in vivo [10]” is 42%; in data set [13] it was 34.7%. In addition, the Vd in the data set “in vivo [12]” was 2.13 L/kg. Besides, the fraction unbound at 4 h, 2 µM in data set [14] amounted to 0.058.

In general, IC50 refers to the point on the concentration scale where inhibition reaches its midpoint. As a reminder, the half-life is the time in which the quantity being followed falls by half. Lower therefore signals rapid decline. As a reminder, the TGI is the reduction of tumour growth relative to the control group. As usually defined, the bioavailability is dose-corrected exposure relative to a reference, in per cent. Low values mean little systemic uptake, high ones much systemic uptake. Broadly, the Vd is a proportionality between amount in the body and measured concentration, not a real space. By fraction unbound is commonly meant free concentration divided by total concentration.
